Measurements: the supplement of paper PMC10307832

How the values were obtained:
[1] = compound: CC1(C)CNc2cc(NC(=O)c3cccnc3NCc3ccncc3)ccc21 [Motesanib] + CC(=O)Nc1cccc(-n2c(=O)n(C3CC3)c(=O)c3c(Nc4ccc(I)cc4F)n(C)c(=O)c(C)c32)c1 [Trametinib] (partner 0.02 µM); assay: relative viability (nuclei count vs DMSO), 5 days (fraction); higher = more cells survive
In short: (§1)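 Dosing by pin tool came one day after lung cancer cell lines were seeded in 1536-well plates, using either one drug or a fixed anchor-drug dose plus five library-drug doses (not always all listed) in √10 steps. After 5 days, nuclei were counted on 4× images. Relative viability is treated-well nuclei count divided by vehicle-well nuclei count, and values are medians of duplicate plates.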

[2] = compound: CC1(C)CNc2cc(NC(=O)c3cccnc3NCc3ccncc3)ccc21 [Motesanib] + NC(=O)Nc1cc(-c2cccc(F)c2)sc1C(=O)N[C@H]1CCCNC1 [AZD7762] (partner 0.2 µM); assay: as above
In short: as §1

Cell Line | relative viability ([1]; first compound 0.01 µM) | relative viability ([1]; first compound 0.03162 µM) | relative viability ([1]; first compound 0.1 µM) | relative viability ([1]; first compound 0.3162 µM) | relative viability ([1]; first compound 1 µM) | relative viability ([2]; first compound 0.01 µM) | relative viability ([2]; first compound 0.03162 µM) | relative viability ([2]; first compound 0.1 µM) | relative viability ([2]; first compound 0.3162 µM) | relative viability ([2]; first compound 1 µM)
NCI-H1975 | 0.335 | 0.359 | 0.316 | 0.38 | 0.339 | 0.656 | 0.686 | 0.752 | 0.821 | 0.709
NCI-H1993 | 0.598 | 0.566 | 0.49 | 0.718 | 0.5 | 0.788 | 0.725 | 0.595 | 0.676 | 0.863
NCI-H2009 | 0.244 | 0.316 | 0.273 | 0.291 | 0.289 | – | – | – | – | –
NCI-H2023 | 0.666 | 0.339 | 0.574 | 0.589 | 0.569 | – | – | – | – | –
NCI-H2085 | 0.513 | 0.537 | 0.521 | 0.535 | 0.526 | 1.02 | 0.933 | 1.14 | 0.953 | 0.987
NCI-H2087 | – | – | 0.199 | 0.182 | 0.182 | – | – | 1.41 | 1.13 | 1.55
NCI-H2126 | 0.58 | 0.579 | 0.579 | 0.543 | 0.547 | 1.04 | 1.05 | 0.999 | 1.03 | 1.09
NCI-H2170 | 0.861 | 0.872 | 0.91 | 0.909 | 0.979 | 0.871 | 0.865 | 0.82 | 0.75 | 0.755
NCI-H2228 | 0.395 | 0.764 | 0.459 | 0.505 | 0.466 | – | – | – | – | –
NCI-H2342 | 0.933 | 0.715 | 0.907 | 0.77 | 0.959 | 0.46 | 0.515 | 0.571 | 0.476 | 0.459
NCI-H2347 | 0.264 | 0.3 | 0.292 | 0.245 | 0.278 | 0.738 | 0.825 | 0.749 | 0.674 | 0.712
NCI-H2405 | 0.53 | 0.603 | 0.625 | 0.684 | 0.704 | 0.629 | 0.632 | 0.691 | 0.812 | 0.765
NCI-H3122 | 0.218 | 0.227 | 0.229 | 0.211 | 0.197 | 0.972 | 1.02 | 0.945 | 1.06 | 1.15
PC-3 [JPC-3] | 0.745 | 0.676 | 0.795 | 0.779 | 0.703 | 0.779 | 0.751 | 0.727 | 0.731 | 0.683
PC-14 | 0.809 | 0.8 | 0.817 | 0.79 | 0.93 | 0.306 | 0.296 | 0.286 | 0.41 | 0.329
RERF-LC-KJ | 0.88 | 0.875 | 0.805 | 0.845 | 0.909 | 0.9 | 0.873 | 1.06 | 1.03 | 0.813
SK-LU-1 | 0.424 | 0.591 | 0.476 | 0.536 | 0.544 | – | – | – | – | –
SK-MES-1 | 0.575 | 0.587 | 0.593 | 0.565 | 0.617 | – | – | – | – | –
SW 900 | 0.855 | 0.764 | 0.938 | 0.683 | 0.848 | 0.787 | 0.786 | 0.552 | 0.523 | 0.726
SW 1573 | 0.613 | 0.503 | 0.721 | 0.593 | 0.628 | – | – | – | – | –
